Laboratory results reported in patent publication US9616053B2, “Indolin-2-one or pyrrolo-pyridin/pyrimidin-2-one derivatives” (Hoffmann-La Roche Inc., priority 2013, dated 2017).

What was measured:
[1] = system: L-687,414-induced hyperlocomotion; experiment: L-687,414-induced hyperlocomotion (Digiscan locomotor activity); format: in vivo, mouse; settings: mice; for inhibition at 30 mg/kg: dose ip 30 mg/kg
Excerpt: The authors described that hyperlocomotion induced by L-687,414 was inhibited by a series of known antipsychotic drugs. […] These findings predict antipsychotic activity for the present compounds, making them useful for the treatment of positive (psychosis) and negative symptoms of schizophrenia, substance abuse, alcohol and drug addiction, obsessive-compulsive disorders, cognitive impairment, bipolar disorders, mood disorders, major depression, resistant depression, anxiety disorders, Alzheimer's disease, autism, Parkinson's disease, chronic pain, borderline personality disorder, sleep disturbances, chronic fatigue syndrome, stiffness, antiinflammatory effects in arthritis and balance problems.
The described compounds of formula I reduce L-687,414-induced hyperlocomotion. This was assessed by using a computerized Digiscan 16 Animal Activity Monitoring System (Omnitech Electronics, Columbus, Ohio) to quantify locomotor activity. Animals were kept under a 12 h light/dark cycle and experiments were performed during the light period. Each activity monitoring chamber consisted of a Plexiglas box (41×41×28 cm; W×L×H) with sawdust bedding on the floor surrounded by invisible horizontal and vertical infrared sensor beams. The test boxes were divided by a Plexiglas cross providing each mouse with 20×20 cm of moving space. Cages were connected to a Digiscan Analyzer linked to a computer that constantly collected the beam status information. Records of photocell beam interruptions for individual animals were taken every 5 min over the duration of the experimental session and the sum of the first 6 periods was used as the final parameter. Compounds were administered either p.o. 15 min before a s.c. injection of 50 mg/kg of L-687,414, or i.p. at the same time as a s.c. injection of 50 mg/kg of L-687,414. Mice were then transferred from their home cage to the recording chambers for a 15-min habituation phase allowing free exploration of the new environment. Horizontal activity was then recorded for a 30-min time period. The % inhibition of L-687,414-induced hyperlocomotion was calculated according to the equation: ((Veh+L-687,414 horizontal activity−drug+L-687,414 horizontal activity)Veh+L-687,414 horizontal activity)×100
ID50 values, defined as doses of each compound producing 50% inhibition of L-687,414-induced hyperlocomotion, were calculated by linear regression analysis of a dose-response data using an Excel-based computer-fitting program.
As data was not presupposed to be normally distributed, groups treated with test compounds were statistically compared with the control (vehicle-treated) group using one-tailed Mann Whitney U tests. In statistics, the Mann-Whitney Utest (also called the Mann-Whitney-Wilcoxon (MWW) or Wilcoxon rank-sum test) is a non-parametric statistical hypothesis test for assessing whether one of two samples of independent observations tends to have larger values than the other. It is one of the most well-known non-parametric significance tests. […] P values given in table 1 are one-tailed since only decreases in locomotion were expected and tested for (Mann, H. B., Whitney, D. R. (1947), “On a Test of Whether one of Two Random Variables is Stochastically Larger than the Other”, Annals of Mathematical Statistics, 18 (1), 50-60).

[2] = system: behaviors of compound-treated mice; experiment: SmartCube behavioral signature and similarity analysis; format: in vivo; design: key to discrimination rate vs Clozapine / discrimination rate vs Olanzapine / discrimination rate vs Risperidone: discrimination rate as fraction; 0.5 = zero distinguishability; settings: 25 mg/kg i.p.; for SmartCube behavioral signature: compared with reference drug classes; for discrimination rate vs Clozapine / discrimination rate vs Olanzapine / discrimination rate vs Risperidone: rate of 0.70 or lower = similar
Excerpt: In addition to the reversal of L-687,414 induced hyperlocomotion experiment as described above, some compounds of the present invention have been tested in SmartCube®, an automated system in which the behaviors of compound-treated mice in response to multiple challenges are captured by digital video and analyzed with computer algorithms (Roberds et al., Frontiers in Neuroscience, 2011, Vol. 5, Art. 103, 1-4). In this way, the neuro-pharmacological effects of a test compound can be predicted by similarity to major classes of compounds, such as antipsychotics, anxiolytics and antidepressants.
As mentioned above, some compounds have been tested in SmartCube®, an analytical system developed by PsychoGenics Inc.
SmartCube® was used to compare the behavioral signature of a test compound to a database of behavioral signatures obtained from a large set of clinically approved reference drugs, grouped per indications. In this way, the neuro-pharmacological effects of a test compound can be predicted by similarity to major classes of compounds, such as antipsychotics, anxiolytics and antidepressants. This approach is ideally suited to screen collections of existing drugs or drug candidates with previously unknown neuropharmacology, which could expedite the development of new and unexpected treatments for psychiatric disorders.
Some compounds of the present invention were injected i.p. at different doses 15 minutes before the test. At least 8 mice were used in each treatment group. Digital videos of the subjects were processed with computer vision algorithms to extract over 2000 dependent measures including frequency and duration of many different behavioral states. The results of the classifications are presented as bar charts for each compound and dose (mg/kg), the Y-axis indicates the relative probability that the test compound will show efficacy in the specific CNS indication.
Compounds of the present invention show similar signatures to those of atypical antipsychotics. An independent analysis was performed on the unclassified data to determine the similarity of the example compounds to active doses of known atypical antipsychotics. For this analysis, we use discrimination rate as the measure of separability between the two drugs, i.e. one drug's “distinguishability” from another. A rate equal to 50% (or 0.5) corresponds to zero distinguishability. […] In most cases, the example compounds show a similarity to risperidone, clozapine and olanzapine with a discrimination rate of ≦0.70.

[3] = Mus musculus, at the same time as s.c. 50 mg/kg L-687,414

In the case of `Cc1ncc(-c2ccc3c(c2)N(C)C(=O)C3(C)C)o1` [Example 71, 1,3,3-Trimethyl-6-(2-methyloxazol-5-yl)indolin-2-one], the inhibition at 30 mg/kg [1, 3] is reported as 68.5%, the SmartCube behavioral signature [2] is reported as “similarity to atypical antipsychotics” and the “discrimination rate vs Clozapine” value [2] is reported as 0.79. For the same compound, the “discrimination rate vs Olanzapine” value [2] was 0.66 and the “discrimination rate vs Risperidone” value [2] was 0.63.

For `CC1(C)C(=O)Nc2cc(-n3ccnc3)ccc21` [Example 58, 6-Imidazol-1-yl-3,3-dimethyl-1,3-dihydro-indol-2-one], the SmartCube behavioral signature [2] was “similarity to atypical antipsychotics”, the “discrimination rate vs Clozapine” value [2] was 0.63 and the “discrimination rate vs Olanzapine” value [2] was 0.69. For the same compound, the “discrimination rate vs Risperidone” value [2] was 0.66.

For `Cc1ncc(-c2ccc3c(c2)N(CCCS(=O)(=O)C2CC2)C(=O)C3(C)C)cn1` [Example 54, 1-(3-(Cyclopropylsulfonyl)propyl)-3,3-dimethyl-6-(2-methylpyrimidin-5-yl)indolin-2-one], the SmartCube behavioral signature [2] was “similarity to atypical antipsychotics”, the “discrimination rate vs Clozapine” value [2] was 0.69 and the “discrimination rate vs Olanzapine” value [2] was 0.61. The “discrimination rate vs Risperidone” value [2] was 0.63.

In the case of `CN1C(=O)C(C)(C)c2ccc(-c3cccnn3)cc21` [Example 13, 1,3,3-Trimethyl-6-(pyridazin-3-yl)indolin-2-one], the inhibition at 30 mg/kg [1, 3] is reported as 76.9%, the SmartCube behavioral signature [2] is reported as “similarity to atypical antipsychotics” and the “discrimination rate vs Clozapine” value [2] is reported as 0.69. For the same compound, the “discrimination rate vs Olanzapine” value [2] was 0.70 and the “discrimination rate vs Risperidone” value [2] was 0.72.

Work on `CN1C(=O)C(C)(C)c2ccc(-c3cnc(N)nc3)cc21` [Example 10, 6-(2-Aminopyrimidin-5-yl)-1,3,3-trimethylindolin-2-one] yielded an inhibition at 30 mg/kg [1, 3] of 97.1%.

With `CN1C(=O)C(C)(C)c2cc(F)c(-c3cncnc3)c(F)c21` [Example 43, 5,7-Difluoro-1,3,3-trimethyl-6-pyrimidin-5-yl-1,3-dihydro-indol-2-one] the inhibition at 30 mg/kg [1, 3] was 60.5%.

`CN1C(=O)C(C)(C)c2ccc(-c3cccnc3)c(F)c21` [Example 34, 7-Fluoro-1,3,3-trimethyl-6-(pyridin-3-yl)indolin-2-one] showed an inhibition at 30 mg/kg [1, 3] of 56.9%.

`CN1C(=O)C(C)(C)c2ccc(-c3ccc(C4CC4)nn3)cc21` [Example 79, 6-(6-Cyclopropylpyridazin-3-yl)-1,3,3-trimethyl-indolin-2-one] showed an inhibition at 20 mg/kg ([1]; Mus musculus, dose ip 20 mg/kg, at the same time as s.c. 50 mg/kg L-687,414) of 62.5%.

Compound `Cc1ncccc1-c1ccc2c(c1)NC(=O)C2(C)C` [Example 19, 3,3-Dimethyl-6-(2-methylpyridin-3-yl)indolin-2-one] has an inhibition at 30 mg/kg [1, 3] of 61.6%.

Work on `Cc1ncc(-c2ccc3c(c2)N(CC2COC2)C(=O)C3(C)C)cn1` [Example 129, 3,3-Dimethyl-6-(2-methylpyrimidin-5-yl)-1-(oxetan-3-ylmethyl)indolin-2-one] yielded an inhibition at 30 mg/kg [1, 3] of 95.5%.

`CCc1ncncc1-c1ccc2c(c1)N(C)C(=O)C2(C)C` [Example 14, 6-(4-Ethylpyrimidin-5-yl)-1,3,3-trimethylindolin-2-one] showed an inhibition at 30 mg/kg [1, 3] of 66.4%.

`CCn1cnc(-c2ccc3c(c2)N(C)C(=O)C3(C)C)c1` [Example 133, 6-(1-Ethyl-1H-imidazol-4-yl)-1,3,3-trimethylindolin-2-one] gave an inhibition at 30 mg/kg [1, 3] of 44%.

For `CC1(C)C(=O)Nc2cc(-n3cnc(C(O)C(F)(F)F)c3)ccc21` (stereo not drawn) [Example 168, 3,3-Dimethyl-6-[4-(2,2,2-trifluoro-1-hydroxy-ethyl)imidazol-1-yl]indolin-2-one], the inhibition at 30 mg/kg [1, 3] was 77%.

Work on `Cc1nnc(-c2ccc3c(c2)NC(=O)C3(C)C)o1` [Example 106, 3,3-Dimethyl-6-(5-methyl-1,3,4-oxadiazol-2-yl)indolin-2-one] yielded an inhibition at 30 mg/kg [1, 3] of 75.7%.

For `CN1C(=O)C(C)(C)c2ccc(-c3cnc4c(c3)CCC4)cc21` [Example 23, 6-(6,7-Dihydro-5H-cyclopenta[b]pyridin-3-yl)-1,3,3-trimethylindolin-2-one], the inhibition at 30 mg/kg [1, 3] was 81.6%.

`CN1C(=O)C(C)(C)c2ccc(-c3cn(CC(F)(F)F)cn3)cc21` [Example 134, 1,3,3-Trimethyl-6-(1-(2,2,2-trifluoroethyl)-1H-imidazol-4-yl)indolin-2-one] gave an inhibition at 30 mg/kg [1, 3] of 79.8%.

Work on `Cc1ncc(-c2cc3c(cn2)C(C)(C)C(=O)N3)cn1` [Example 92, 3,3-Dimethyl-6-(2-methylpyrimidin-5-yl)-1H-pyrrolo[3,2-c]pyridin-2-one] yielded an inhibition at 30 mg/kg [1, 3] of 80.9%.

With `CC1(C)C(=O)Nc2cc(-c3ccncc3)ccc21` [Example 7, 3,3-Dimethyl-6-(pyridin-4-yl)indolin-2-one] the ID50 po ([1]; dose producing 50% inhibition of L-687,414-induced hyperlocomotion, p.o. 15 min before s.c. 50 mg/kg L-687,414) was 29.2 mg/kg.

`CC1(C)C(=O)Nc2cc(-c3cn(C4CC4)cn3)ccc21` [Example 113, 6-(1-Cyclopropyl-1H-imidazol-yl)-3,3-dimethylindolin-2-one] showed an inhibition at 30 mg/kg [1, 3] of 83.9%.
